Experimental data published in article PMC6742646, “Extensive disruption of protein interactions by genetic variants across the allele frequency spectrum in human populations” (Nature Communications, 2019).

Molecular target: T1, AKR7A2 (Homo sapiens, UniProt O43488)
T1 construct: hORFeome ORF cloned EcoRI/XhoI in pET-6xHis-SUMO; E. coli Rosetta; cobalt purified, His-SUMO tag cleaved with Ulp1, FPLC; dimer in solution
Test: NADPH-dependent SSA reduction, absorbance plate assay
Type: biochemical
Conditions: 0.5 mM NADPH, sodium phosphate pH 8.0, 37 °C; SSA 0.50-3.5 mM; only kcat/KM printed

T1 sequence (O43488 whole entry): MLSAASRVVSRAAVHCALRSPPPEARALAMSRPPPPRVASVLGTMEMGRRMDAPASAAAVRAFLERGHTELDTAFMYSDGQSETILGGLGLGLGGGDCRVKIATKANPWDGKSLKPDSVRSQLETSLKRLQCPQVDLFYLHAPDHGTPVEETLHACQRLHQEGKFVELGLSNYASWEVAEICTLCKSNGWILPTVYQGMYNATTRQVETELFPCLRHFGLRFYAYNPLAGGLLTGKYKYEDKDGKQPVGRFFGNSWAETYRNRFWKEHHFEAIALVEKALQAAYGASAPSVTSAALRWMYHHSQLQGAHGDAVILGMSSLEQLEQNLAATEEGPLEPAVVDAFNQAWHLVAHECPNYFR

O=CCCC(=O)O [succinic semialdehyde]
NADPH-dependent SSA reduction, absorbance plate assay: we purified recombinant WT and mutant AKR7A2 protein to test for changes in NADPH-dependent turnover
